# Test results published in publication PMC12073449, “Development of a Mechanism of Action-Reflective Cell-Based Reporter Gene Assay for Measuring Bioactivities of Therapeutic Glucagon-like Peptide-2 Analogues” (Molecules, 2025).
# Ends that are not written are not given here.
# System: HEK293-GLP-2R-Luc cells
substance,measurement,setting,value
HGEGTFSSELATILDALAARDFINWLIATKITDKKKKKK-NH2 [glepaglutide],log2 (TD/Ctrl) TMEM54,Qvalue 0.021231,1.072
same,log2 (TD/Ctrl) RYR1,Qvalue 0.021465,1.055
same,log2 (TD/Ctrl) PHKG1,Qvalue 0.021994,1.955
same,log2 (TD/Ctrl) KLF6,Qvalue 0.022289,1.402
same,log2 (TD/Ctrl) LRRTM4,Qvalue 0.022315,−1.285
same,log2 (TD/Ctrl) PHOSPHO2,Qvalue 0.023229,−1.059
same,log2 (TD/Ctrl) MICOS10-NBL1,Qvalue 0.023249,1.952
same,log2 (TD/Ctrl) PDE3A,Qvalue 0.023634,1.882
same,log2 (TD/Ctrl) LARGE2,Qvalue 0.023651,1.17
same,log2 (TD/Ctrl) HES7,Qvalue 0.024442,1.525
same,log2 (TD/Ctrl) VSTM2B,Qvalue 0.024619,1.668
same,log2 (TD/Ctrl) INSM1,Qvalue 0.02493,1.259
same,log2 (TD/Ctrl) SIK1,Qvalue 0.025061,1.255
same,log2 (TD/Ctrl) IQANK1,Qvalue 0.02555,−1.07
same,log2 (TD/Ctrl) TRABD2A,Qvalue 0.026368,1.121
same,log2 (TD/Ctrl) RAB20,Qvalue 0.026593,1.265
same,log2 (TD/Ctrl) ADAM8,Qvalue 0.026923,−1.632
same,log2 (TD/Ctrl) EGR2,Qvalue 0.027245,1.924
same,log2 (TD/Ctrl) ACTRT3,Qvalue 0.027976,−1.89
same,log2 (TD/Ctrl) CILP2,Qvalue 0.028089,1.014
same,log2 (TD/Ctrl) KCNJ4,Qvalue 0.028153,1.521
same,log2 (TD/Ctrl) NGFR,Qvalue 0.0305,1.083
same,log2 (TD/Ctrl) GPR146,Qvalue 0.031918,−1.284
same,log2 (TD/Ctrl) SLC2A9,Qvalue 0.032594,−1.825
same,log2 (TD/Ctrl) FIBIN,Qvalue 0.032833,−1.931
same,log2 (TD/Ctrl) INSC,Qvalue 0.033388,1.775
same,log2 (TD/Ctrl) TRPM4,Qvalue 0.034028,1.164
same,log2 (TD/Ctrl) TOR4A,Qvalue 0.034573,−1.123
same,log2 (TD/Ctrl) ANXA3,Qvalue 0.034821,1.046
same,log2 (TD/Ctrl) F2RL2,Qvalue 0.035979,2.195
same,log2 (TD/Ctrl) GFRA2,Qvalue 0.036382,1.989
same,log2 (TD/Ctrl) CHD5,Qvalue 0.036855,1.476
same,log2 (TD/Ctrl) IER5L,Qvalue 0.037055,1.227
same,log2 (TD/Ctrl) CORO1A,Qvalue 0.03809,1.157
same,log2 (TD/Ctrl) DMRT1,Qvalue 0.038243,2.578
same,log2 (TD/Ctrl) TMEM200A,Qvalue 0.038553,2.008
same,log2 (TD/Ctrl) BIRC3,Qvalue 0.038759,1.213
same,log2 (TD/Ctrl) GJB7,Qvalue 0.040011,−1.706
same,log2 (TD/Ctrl) PABIR3,Qvalue 0.044085,1.001
same,log2 (TD/Ctrl) DAB1,Qvalue 0.044461,1.527
same,log2 (TD/Ctrl) CLIC5,Qvalue 0.046355,1.134
same,log2 (TD/Ctrl) LOC124904248,Qvalue 0.046402,−1.239
same,log2 (TD/Ctrl) FOXD4,Qvalue 0.046871,−1.765
same,log2 (TD/Ctrl) SNAI2,Qvalue 0.046941,1.1
same,log2 (TD/Ctrl) ANKRD20A1,Qvalue 0.047154,1.015
same,log2 (TD/Ctrl) MVP,Qvalue 0.048413,1.066
same,log2 (TD/Ctrl) SHISA8,Qvalue 0.048554,1.031
same,log2 (TD/Ctrl) TBC1D3C,Qvalue 0.04891,−2.321
same,log2 (TD/Ctrl) CDH1,Qvalue 0.049404,1.135
same,log2 (TD/Ctrl) ZNF296,Qvalue 0.049596,1.005
same,log2 (TD/Ctrl) IRX4,Qvalue 1.00 × 10^−4,3.763
same,log2 (TD/Ctrl) LYPD6,Qvalue 1.04 × 10^−4,−1.124
same,log2 (TD/Ctrl) TGFB1,Qvalue 1.04 × 10^−9,1.683
same,log2 (TD/Ctrl) SMOX,Qvalue 1.04 × 10^−10,1.479
same,log2 (TD/Ctrl) GPR3,Qvalue 1.05 × 10^−12,3.013
same,log2 (TD/Ctrl) PMAIP1,Qvalue 1.07 × 10^−13,1.02
same,log2 (TD/Ctrl) CCN1,Qvalue 1.09 × 10^−13,1.83
same,log2 (TD/Ctrl) BAX,Qvalue 1.10 × 10^−10,−1.136
same,log2 (TD/Ctrl) ACTBL2,Qvalue 1.10 × 10^−21,2.68
same,log2 (TD/Ctrl) CREM,Qvalue 1.18 × 10^−18,1.319
same,log2 (TD/Ctrl) TFPI,Qvalue 1.19 × 10^−6,1.103
same,log2 (TD/Ctrl) CFAP44,Qvalue 1.21 × 10^−4,−1.2179
same,log2 (TD/Ctrl) SPRY4,Qvalue 1.22 × 10^−4,1.583
same,log2 (TD/Ctrl) GCNT1,Qvalue 1.22 × 10^−6,−1.113
same,log2 (TD/Ctrl) DUSP1,Qvalue 1.23 × 10^−13,2.837
same,log2 (TD/Ctrl) MAFK,Qvalue 1.26 × 10^−13,1.561
same,log2 (TD/Ctrl) GEM,Qvalue 1.30 × 10^−33,2.896
same,log2 (TD/Ctrl) EML2,Qvalue 1.31 × 10^−5,1.098
same,log2 (TD/Ctrl) ECEL1,Qvalue 1.32 × 10^−6,2.018
same,log2 (TD/Ctrl) NFATC1,Qvalue 1.32 × 10^−9,1.146
same,log2 (TD/Ctrl) LBHD1,Qvalue 1.34 × 10^−6,−1.453
same,log2 (TD/Ctrl) GNG4,Qvalue 1.34 × 10^−10,1.107
same,log2 (TD/Ctrl) GFPT2,Qvalue 1.35 × 10^−4,1.08
same,log2 (TD/Ctrl) HOXB6,Qvalue 1.35 × 10^−4,−1.274
same,log2 (TD/Ctrl) VGF,Qvalue 1.36 × 10^−15,2.99
same,log2 (TD/Ctrl) USP4,Qvalue 1.38 × 10^−4,1.002
same,log2 (TD/Ctrl) CASD1,Qvalue 1.39 × 10^−4,−1.007
same,log2 (TD/Ctrl) SGK1,Qvalue 1.39 × 10^−7,1.322
same,log2 (TD/Ctrl) PHLDA1,Qvalue 1.40 × 10^−4,1.224
same,log2 (TD/Ctrl) NDRG1,Qvalue 1.40 × 10^−27,1.674
same,log2 (TD/Ctrl) EMILIN2,Qvalue 1.41 × 10^−13,1.304
same,log2 (TD/Ctrl) TPM4,Qvalue 1.41 × 10^−16,1.086
same,log2 (TD/Ctrl) FOSB,Qvalue 1.44 × 10^−4,2.796
same,log2 (TD/Ctrl) IER3,Qvalue 1.44 × 10^−12,1.677
same,log2 (TD/Ctrl) AHR,Qvalue 1.47 × 10^−8,1.016
same,log2 (TD/Ctrl) SPINT1,Qvalue 1.47 × 10^−8,1.307
same,log2 (TD/Ctrl) PTP4A1,Qvalue 1.47 × 10^−41,1.5
same,log2 (TD/Ctrl) FOSL2,Qvalue 1.49 × 10^−13,1.385
same,log2 (TD/Ctrl) GADD45A,Qvalue 1.52 × 10^−19,1.573
same,log2 (TD/Ctrl) FOS,Qvalue 1.54 × 10^−5,3.22
same,log2 (TD/Ctrl) SMAD6,Qvalue 1.54 × 10^−5,−1.023
same,log2 (TD/Ctrl) FADS2,Qvalue 1.54 × 10^−10,−1.136
same,log2 (TD/Ctrl) DNAJB5,Qvalue 1.56 × 10^−4,1.316
